How the values were obtained:
Type in all cases: physicochemical
[1] = Stability of solution in 0.1 M HCl, pH 1.1, HPLC assay
Text: (§1) The stability of [5-Methyl-8-(4-methylpiperazin-1-yl)-1,2,3,4-tetrahydro-2-naphtyl]-4-morpholinobenzamide(=“Base” in tables below) and (R)-N-[5-methyl-8-(4-methylpiperazin-1-yl)-1,2,3,4-tetrahydro-2-naphtyl]-4-morpholinobenzamide monohydrobromide Form A (=“Form A” in tables below), as bulk drug substance and in solutions at different pH levels after exposure to daylight and at elevated temperatures, has been studied. Three solutions were made from each batch of drug substance. One solution in pure water, one in 0.1 mM HCl (pH 4.1) and one in 0.1 M HCl (pH 1.1). The content of [5-Methyl-8-(4-methylpiperazin-1-yl)-1,2,3,4-tetrahydro-2-naphtyl]-4-morpholinobenzamide (=Base) was determined by HPLC, all results are calculated as the base.

[2] = Water sorption by dynamic vapour sorption (DVS)
[3] = Stability in water solutions (pH not adjusted), HPLC assay
Text: as §1

[4] = Stability of bulk drug substance (HPLC purity) in daylight and at 90° C.; conditions: for HPLC Purity (100% - related substances): bulk
Experimental: The stability of [5-Methyl-8-(4-methylpiperazin-1-yl)-1,2,3,4-tetrahydro-2-naphtyl]-4-morpholinobenzamide(=“Base” in tables below) and (R)-N-[5-methyl-8-(4-methylpiperazin-1-yl)-1,2,3,4-tetrahydro-2-naphtyl]-4-morpholinobenzamide monohydrobromide Form A (=“Form A” in tables below), as bulk drug substance and in solutions at different pH levels after exposure to daylight and at elevated temperatures, has been studied. The bulk substances are very stable, both in daylight and at 90° C. There are no significant differences between the HPLC purity of [5-Methyl-8-(4-methylpiperazin-1-yl)-1,2,3,4-tetrahydro-2-naphtyl]-4-morpholinobenzamide (=Base) and (R)-N-[5-methyl-8-(4-methylpiperazin-1-yl)-1,2,3,4-tetrahydro-2-naphtyl]-4-morpholinobenzamide monohydrobromide Form A (=Form A) at the tested conditions.

[5] = Solubility in water by HPLC-analysis
[6] = Stability of solution in 0.1 mM HCl, pH 4.1, HPLC assay
Text: as §1

[7] = daylight RT, 14 days, % of start
[8] = daylight RT, 23 days, % of start

## Br.Cc1ccc(N2CCN(C)CC2)c2c1CC[C@@H](NC(=O)c1ccc(N3CCOCC3)cc1)C2 [Form A, (R)-N-[5-methyl-8-(4-methylpiperazin-1-yl)-1,2,3,4-tetrahydro-2-naphtyl]-4-morpholinobenzamide monohydrobromide]
[1]; 5° C., 8 days, % of start
  Solution in 0.1 M HCl, pH 1.1, assay: 100%
[1]; 5° C., 14 days, % of start
  Solution in 0.1 M HCl, pH 1.1, assay: 100%
[1]; 5° C., 23 days, % of start
  Solution in 0.1 M HCl, pH 1.1, assay: 98%
[1]; 5° C., Start
  Solution in 0.1 M HCl, pH 1.1, assay: 0.504 mg base/ml
[1]; 5° C., Start, % of start
  Solution in 0.1 M HCl, pH 1.1, assay: (100%)
[1]; 60° C., 2 days, % of start
  Solution in 0.1 M HCl, pH 1.1, assay: 100%
[1]; 60° C., 8 days, % of start
  Solution in 0.1 M HCl, pH 1.1, assay: 97%
[1]; 60° C., 14 days, % of start
  Solution in 0.1 M HCl, pH 1.1, assay: 95%
[1]; 60° C., 23 days, % of start
  Solution in 0.1 M HCl, pH 1.1, assay: 88%
[1]; 60° C., Start
  Solution in 0.1 M HCl, pH 1.1, assay: 0.504 mg base/ml
[1]; 60° C., Start, % of start
  Solution in 0.1 M HCl, pH 1.1, assay: (100%)
[1]; Dark RT, 8 days, % of start
  Solution in 0.1 M HCl, pH 1.1, assay: 101%
[1]; Dark RT, 14 days, % of start
  Solution in 0.1 M HCl, pH 1.1, assay: 99%
[1]; Dark RT, 23 days, % of start
  Solution in 0.1 M HCl, pH 1.1, assay: 98%
[1]; Dark RT, Start
  Solution in 0.1 M HCl, pH 1.1, assay: 0.504 mg base/ml
[1]; Dark RT, Start, % of start
  Solution in 0.1 M HCl, pH 1.1, assay: (100%)
[1]; [7]
  Solution in 0.1 M HCl, pH 1.1, assay: 100%
[1]; [8]
  Solution in 0.1 M HCl, pH 1.1, assay: 98%
[1]; daylight RT, Start
  Solution in 0.1 M HCl, pH 1.1, assay: 0.504 mg base/ml
[1]; daylight RT, Start, % of start
  Solution in 0.1 M HCl, pH 1.1, assay: (100%)
[1]; pH 1.1, except at 60° C.
  stability in solution in words: good
[2]; 80% RH and 25° C.
  water sorbed as measured by dynamic vapour sorption (DVS): 0,8%
[2]; solid state characterization, monohydrobromide
  hygroscopicity / water uptake in words: non-hygroscopic
[3]; 5° C., 8 days, % of start
  Stability in water solutions, assay: 101%
[3]; 5° C., 14 days, % of start
  Stability in water solutions, assay: 100%
[3]; 5° C., 23 days, % of start
  Stability in water solutions, assay: 99%
[3]; 5° C., Start
  Stability in water solutions, assay: 0.0248 mg base/ml
[3]; 5° C., Start, % of start
  Stability in water solutions, assay: (100%)
[3]; 60° C., 2 days, % of start
  Stability in water solutions, assay: 84%
[3]; 60° C., 8 days, % of start
  Stability in water solutions, assay: 81%
[3]; 60° C., 14 days, % of start
  Stability in water solutions, assay: 76%
[3]; 60° C., 23 days, % of start
  Stability in water solutions, assay: 82%
[3]; 60° C., Start
  Stability in water solutions, assay: 0.0248 mg base/ml
[3]; 60° C., Start, % of start
  Stability in water solutions, assay: (100%)
[3]; 60° C., pH not adjusted
  stability in pure water solution, comparison in words: less stable than the Base
[3]; Dark RT, 8 days, % of start
  Stability in water solutions, assay: 99%
[3]; Dark RT, 14 days, % of start
  Stability in water solutions, assay: 99%
[3]; Dark RT, 23 days, % of start
  Stability in water solutions, assay: 97%
[3]; Dark RT, Start
  Stability in water solutions, assay: 0.0248 mg base/ml
[3]; Dark RT, Start, % of start
  Stability in water solutions, assay: (100%)
[3]; daylight RT, 8 days, % of start
  Stability in water solutions, assay: 100%
[3]; [7]
  Stability in water solutions, assay: 101%
[3]; [8]
  Stability in water solutions, assay: 100%
[3]; daylight RT, Start
  Stability in water solutions, assay: 0.0248 mg base/ml
[3]; daylight RT, Start, % of start
  Stability in water solutions, assay: (100%)
[4]; 90° C., 2 days
  HPLC Purity (100% - related substances): 99.6%
[4]; 90° C., 8 days
  HPLC Purity (100% - related substances): 99.6%
[4]; 90° C., 14 days
  HPLC Purity (100% - related substances): 99.5%
[4]; 90° C., 21 days
  HPLC Purity (100% - related substances): 99.6%
[4]; 90° C., 30 days
  HPLC Purity (100% - related substances): 99.4%
[4]; 90° C., Start
  HPLC Purity (100% - related substances): 99.7%
[4]; daylight, RT, 8 days
  HPLC Purity (100% - related substances): 99.6%
[4]; daylight, RT, 14 days
  HPLC Purity (100% - related substances): 99.5%
[4]; daylight, RT, 21 days
  HPLC Purity (100% - related substances): 99.5%
[4]; daylight, RT, 30 days
  HPLC Purity (100% - related substances): 99.5%
[4]; daylight, RT, Start
  HPLC Purity (100% - related substances): 99.7%
[4]; in daylight and at 90° C.
  stability of bulk substance in words: very stable
[5]
  solubility in water in words: satisfactory
[5]; as the free base by HPLC-analysis
  solubility in water: 6400 µg/mL
[6]; 5° C., 8 days, % of start
  Solution in 0.1 mM HCl, pH 4.1, assay: 100%
[6]; 5° C., 14 days, % of start
  Solution in 0.1 mM HCl, pH 4.1, assay: 100%
[6]; 5° C., 23 days, % of start
  Solution in 0.1 mM HCl, pH 4.1, assay: 100%
[6]; 5° C., Start
  Solution in 0.1 mM HCl, pH 4.1, assay: 0.0490 mg base/ml
[6]; 5° C., Start, % of start
  Solution in 0.1 mM HCl, pH 4.1, assay: (100%)
[6]; 60° C., 2 days, % of start
  Solution in 0.1 mM HCl, pH 4.1, assay: 97%
[6]; 60° C., 8 days, % of start
  Solution in 0.1 mM HCl, pH 4.1, assay: 93%
[6]; 60° C., 14 days, % of start
  Solution in 0.1 mM HCl, pH 4.1, assay: 90%
[6]; 60° C., 23 days, % of start
  Solution in 0.1 mM HCl, pH 4.1, assay: 81%
[6]; 60° C., Start
  Solution in 0.1 mM HCl, pH 4.1, assay: 0.0490 mg base/ml
[6]; 60° C., Start, % of start
  Solution in 0.1 mM HCl, pH 4.1, assay: (100%)
[6]; Dark RT, 8 days, % of start
  Solution in 0.1 mM HCl, pH 4.1, assay: 99%
[6]; Dark RT, 14 days, % of start
  Solution in 0.1 mM HCl, pH 4.1, assay: 99%
[6]; Dark RT, 23 days, % of start
  Solution in 0.1 mM HCl, pH 4.1, assay: 98%
[6]; Dark RT, Start
  Solution in 0.1 mM HCl, pH 4.1, assay: 0.0490 mg base/ml
[6]; Dark RT, Start, % of start
  Solution in 0.1 mM HCl, pH 4.1, assay: (100%)
[6]; [7]
  Solution in 0.1 mM HCl, pH 4.1, assay: 99%
[6]; [8]
  Solution in 0.1 mM HCl, pH 4.1, assay: 97%
[6]; daylight RT, Start
  Solution in 0.1 mM HCl, pH 4.1, assay: 0.0490 mg base/ml
[6]; daylight RT, Start, % of start
  Solution in 0.1 mM HCl, pH 4.1, assay: (100%)
[6]; pH 4.1, except at 60° C.
  stability in solution in words: good

— patent US20030166653A1, “Novel form of (r)-n-[5-methyl-8-(4-methylpiperazin-1-yl)-1,2,3,4-tetrahydro-2-naphthyl]-4-morpholinobenzamide” (priority 2003, published 2003)
